According to patent US10485739B2, “High strength microcapsules” (ENCAPSYS, LLC, priority 2014, dated 2019):
Converted amounts (≈) assume the structure as drawn.

Assays:
[1] = Monomer solubility in water (GC/MS of water phase); assay type: physicochemical; conditions: @ 25° C., monomer equilibrated with deionized water 24 hours; for solubility at 24 h: thermodynamic from solid
Method: Monomer Solubility in Water
Solubility of the monomers in water is determined by combining 5 g of monomer and 5 g of deionized water in a sealed 20 ml vial for 30 min, after which the sample is allowed to sit at room temperature for 24 hours to establish equilibrium and phase separation of monomer from water. The water phase was then removed and analyzed to determine the monomer concentration GC/MS (7890B GC with a 5977A MSD Mass Spectrophotometer), both from Agilent. Inlet temperature at 270 C. Ramp starting at 100° C. to 320° C. at 10 degrees per min. The mass spec was scanning from a molecular weight of 30-500. The GC column was a Agilent DB-SMS 30M×0.250 mm.

[2] = temperature at which initiator has 10 hour half-life; cited from earlier work

| Compound | Solubility in water [1] | 10 hour ½ life temperature [2] | other results |
| --- | --- | --- | --- |
| C=C(C)C(=O)OCCOC(=O)C(=C)C [SR206, Ethylene glycol dimethacrylate] | – | – | solubility at 24 h [1]: 2400 µg/mL (≈ 12.1 mM) |
| C=CC(=O)OCC(C)(C)COC(=O)C=C [SR247, Neopentyl glycol diacrylate] | – | – | solubility at 24 h [1]: 940 µg/mL (≈ 4.43 mM) |
| C=CC(=O)OCCOCCOCC [SR256, 2-(2-ethoxyethoxy) ethyl acrylate] | 25330 µg/mL (≈ 135 mM) | – | – |
| C=CC(=O)OCC(COC(=O)C=C)(COC(=O)C=C)COC(=O)C=C [SR295, PENTAERYTHRITOL TETRAACRYLATE] | – | – | solubility at 24 h [1]: 4230 µg/mL (≈ 12 mM) |
| CC(C)(N=NC(C)(C)C(=N)N)C(=N)N.Cl [Sample V-50, 2,2′-azobis(2-amidinopropane) hydrochloride] | – | 10 hour ½ life at 56 °C | – |
| CC(C)(N=NC(C)(C)C(=O)NCCO)C(=O)NCCO [VA-086, 2,2′-Azobis[2-methyl-N-(2-hydroxyethyl)propionamide]] | – | 10 hour ½ life at 86 °C | – |
| CCC(C)(C#N)N=NC(C)(C#N)CC (centres unmarked) [Vazo-67, 2,2′-azobis(2-methylbutyronitrile)] | – | 10 hour ½ life at 67 °C | – |
| N#CC1(N=NC2(C#N)CCCCC2)CCCCC1 [Vazo-88, 1,1′-Azobis(cyclohexanecarbonitrile)] | – | 10 hour ½ life at 88 °C | – |
| Polyethylene glycol 200 diacrylate [SR259] | 40680 µg/mL | – | – |
| Polyethylene glycol 400 diacrylate [SR344] | soluble | – | – |
| polyethylene glycol (600) diacrylate [SR610] | soluble | – | – |
